Assay results as given in patent publication US12269800B2, “Delivery of therapeutic alkaloid compounds” (priority 2021, dated 2025).
Like-named read-outs stand apart in the source and are kept apart here.

Experiments:
[1] = assay type: physicochemical
Procedure: The hydrolysis kinetics was under a certain temperature and measured by LCMS at a certain time interval. The corresponding LCMS chromatograms were recorded and the conversions were calculated. The hydrolysis conditions and the data were summarized in below table. LCMS spectra were obtained using Agilent 1200G1956A or SHIMADZU LCMS-2020. Standard LCMS conditions were as follows (running time 1.55 minutes):
Acidic condition: Mobile Phase A: 0.0375% TFA in water (v/v). Mobile Phase B: 0.01875% TFA in acetonitrile (v/v); Column: Kinetex EVO C18 30*2.1 mm, 5 μm.
Basic condition: Mobile Phase A: 0.025% NH3—H2O in water (v/v). Mobile Phase B: Acetonitrile; Column: Kinetex EVO C18 2.1×30 mm, 5 μm.
Conversion (%)=peak area 1/(peak area 1+peak area 2)*100%, peak area 1 is the integration of hydrolyzed product, peak area 2 is the integration of starting material.

[2] = 5 µM
[3] = 5 µM; remark: listed apart in the source
[4] = Pharmacokinetics of 043 and 001 in mice after oral 043 (75 mg/kg); assay type: in vivo, male C57BL/6 mice
Procedure: Total twelve male mice were used in this study. […] The formulation vehicle used was normal saline.
The plasma and brain concentration-time data of 043 and 001 was used for the pharmacokinetic analysis.
The extraction procedure for plasma/brain samples and the spiked plasma/brain calibration standards were identical:
A 25 μL of study sample plasma/brain (dilution applied to some samples) or spiked plasma calibration standard was added to individual pre-labeled micro-centrifuge tubes followed by 100 μL of internal standard prepared in acetonitrile (Glipizide-500 ng/mL) was added except for blank, where 100 μL of acetonitrile was added. Samples were vortexed for 5 minutes. Samples were centrifuged for 10 minutes at a speed of 4000 rpm at 4° C. Following centrifugation, 100 μL of clear supernatant was transferred in 96 well plates and analyzed using LC-MS/MS.

[5] = assay type: physicochemical; conditions: DI water, 25° C., 0.5 mM
[6] = Hydrolysis Assay of Example A2, Condition 1 (SGF with pepsin, pH 1.5, 37° C.); assay type: physicochemical; conditions: SGF with pepsin pH 1.5, 37° C., 0.5 mM
[7] = Plasma Stability Assay of Example A3, human plasma; conditions: % of prodrug compound remaining, 37° C., 0.0 min
[8] = Plasma Stability Assay of Example A3, mouse plasma; conditions: % of prodrug compound remaining, 37° C.
[9] = for conversion to 001 in vivo: 2 mg/kg iv in mice; for plasma levels of 001: mouse, iv, 2 mg/kg
Procedure: General Procedure for intravenous pharmacokinetic study in mice: Male C57/BL6 mice were used to evaluate each compound, with n=3 mice/time point. Animals were administered through intravenous route with solution formulation at 2 mg/kg dose. […] Following blood collection, immediately, animals were sacrificed, and vena-cava was cut open and blood was drained. […] Brain samples were collected from set of three mice at each time point. […] Brain samples were homogenized using 2 volumes of ice-cold PBS (pH-7.4) of brain weight. […] Concentrations of compound (or compound and metabolite) in mouse plasma and brain samples were determined by fit for purpose LC-MS/MS method.

[10] = analyte as labelled, single oral administration of 043, 75 mg/kg
[11] = brain, analyte as labelled, single oral administration of 043, 75 mg/kg
[12] = plasma, analyte as labelled, single oral administration of 043, 75 mg/kg

Structure (SMILES) | Condition 2 Conversion (%) ([5]; time 1 min) | Condition 2 Conversion (%) ([5]; time 5 min) | Condition 2 Conversion (%) ([5]; time 30 min) | Condition 2 Conversion (%) ([5]; time 1 h) | Condition 2 Conversion (%) ([5]; time 4 h) | Condition 2 Conversion (%) ([5]; time 24 h) | Condition 1 Conversion (%) ([6]; time 1 min) | Condition 1 Conversion (%) ([6]; time 5 min) | Condition 1 Conversion (%) ([6]; time 30 min) | Condition 1 Conversion (%) ([6]; time 1 h) | Condition 1 Conversion (%) ([6]; time 4 h) | Condition 1 Conversion (%) ([6]; time 24 h) | other results
COc1ccc([C@]23CCN(C)[C@H]2CC2(CC3)OCCO2)cc1OC (racemic) [Compound 013, 3′a-(3,4-dimethoxyphenyl)-1′-methyl-spiro[1,3-dioxolane-2,6′-2,3,4,5,7,7a-hexahydroindole]] | – | – | – | – | – | – | – | – | – | – | – | – | Notes (stability in words) [1]: Stable; conversion to mesembrine ([1]; acidic pH 2.0, 5° C.): not at 5 °C; conversion to mesembrine ([1]; acidic pH 2.0, 37 and 50° C.): converted to mesembrine
COc1ccc([C@]23CCN(C)[C@H]2CC2(CC3)SCCS2)cc1OC (racemic) [Compound 014, (7′aS)-3′a-(3,4-dimethoxyphenyl)-1′-methyl-spiro[1,3-dithiolane-2,6′-2,3,4,5,7,7a-hexahydroindole]] | – | – | – | – | – | – | – | – | – | – | – | – | Notes (stability in words) ([1]; pH = 2.0, 25° C., 0.5 mM, 0.01M HCl, 0-24 h): Stable
COc1ccc([C@@]23CCC(=NNC(=O)Nc4ccc(C(=O)O)cc4)C[C@@H]2N(C)CC3)cc1OC (racemic) [Compound 259, 4-[[[(3aS,7aS)-3a-(3,4-dimethoxyphenyl)-1-methyl-2,3,4,5,7,7a-hexahydroindol-6-ylidene]amino]carbamoylamino]benzoic acid] | – | – | – | – | – | – | – | – | – | – | – | – | Human Plasma Prodrug (%) ([2]; 0 min): 100%; Human Plasma Prodrug (%) ([2]; 15 min): >99%; Human Plasma Prodrug (%) ([2]; 30 min): 96.6%; Human Plasma Prodrug (%) ([2]; 60 min): 85.7%; Human Plasma Prodrug (%) ([2]; 120 min): 70.0%; Human Plasma Prodrug (%) ([2]; 240 min): 54.3%; Mouse Plasma Prodrug (%) ([3]; 0 min): 100%; Mouse Plasma Prodrug (%) ([3]; 15 min): 86.2%; Mouse Plasma Prodrug (%) ([3]; 30 min): 81.0%; Mouse Plasma Prodrug (%) ([3]; 60 min): 67.6%; Mouse Plasma Prodrug (%) ([3]; 120 min): 38.7%; Mouse Plasma Prodrug (%) ([3]; 240 min): 19.8%
COc1ccc([C@]23CCN(C)[C@H]2CC2(CC3)OCCO2)cc1OC [Compound 043] | – | – | – | – | – | – | – | – | – | – | – | – | conversion to 001 in vivo ([4]; 75 mg/kg po in mice): efficiently converts to 001 in vivo; brain concentrations quantifiable up to [4, 10]: 4 h; brain exposure-Kp [4, 10]: < 1; AUClast [4, 11]: 1787.23 ng·h/mL; Cmax [4, 11]: 2684.81 ng/mL; Tmax [4, 11]: 30 min; AUClast [4, 12]: 2555.07 ng·h/mL; Cmax [4, 12]: 3392.53 ng/mL; Tmax [4, 12]: 30 min
CCCCC(=O)OC1=C[C@@H]2N(C)CC[C@]2(c2ccc(OC)c(OC)c2)CC1 [Compound 268, N-[[(3aS,7aS)-3a-(3,4-dimethoxyphenyl)-1-methyl-3,4,5,7a-tetrahydro-2H-indol-6-yl] pentanoate] | 0% | 0% | 0% | 0% | 0% | 0% | 0% | 0% | 0% | 0% | 0% | 0% | –
COc1ccc([C@@]23CC/C(=N/NC(=O)Nc4ccccc4Cl)C[C@@H]2N(C)CC3)cc1OC [Compound 270, 1-[(Z)—[(3aS,7aS)-3a-(3,4-dimethoxyphenyl)-1-methyl-2,3,4,5,7,7a-hexahydroindol-6-ylidene]amino]-3-(2-chlorophenyl)urea] | – | – | – | – | 1% | 1% | – | – | – | – | 1% | 1% | –
COc1ccc([C@]23CCN(C)[C@H]2CC2(CC3)OCC(C34CC5CC(CC(C5)C3)C4)O2)cc1OC (stereo partly drawn) [Compound 281, (3′aS,7′aS)-4-(1-adamantyl)-3′a-(3,4-dimethoxyphenyl)-1′-methyl-spiro[1,3-dioxolane-2,6′-2,3,4,5,7,7a-hexahydroindole]] | 0% | 0% | 0% | 0% | 0% | 0% | 0% | 0% | 0% | 0% | 0% | 0% | –
COc1ccc([C@]23CCN(C)[C@H]2CC2(CC3)Oc3ccccc3O2)cc1OC [Compound 300, (3′aS,7′aS)-3′a-(3,4-dimethoxyphenyl)-1′-methyl-spiro[1,3-benzodioxole-2,6′-2,3,4,5,7,7a-hexahydroindole]] | 0% | 0% | 0% | 0% | 0% | 0% | 0% | 0% | 0% | 0% | 0% | 0% | –
COc1ccc([C@@]23CCC(OC(=O)c4ccc(C(F)(F)F)cc4)=C[C@@H]2N(C)CC3)cc1OC [Compound 310] | 0% | 0% | 0% | 0% | 0% | 0% | 0% | 0% | 0% | 0% | 0% | 0% | Human Plasma Prodrug (%) [7]: 100.0%; Mouse Plasma Prodrug (%) ([8]; 0.0 min): 100.0%; Mouse Plasma Prodrug (%) ([8]; 15 min): 0.4%; Mouse Plasma Prodrug (%) ([8]; 30 min): 0.1%; Mouse Plasma Prodrug (%) ([8]; 60 min): 0.1%; Mouse Plasma Prodrug (%) ([8]; 120 min): 0.1%; Mouse Plasma Prodrug (%) ([8]; 240 min): 0.1%
CCC(=O)OC1=C[C@@H]2N(C)CC[C@]2(c2ccc(OC)c(OC)c2)CC1 [Compound 317, [(3aS,7aS)-3a-(3,4-dimethoxyphenyl)-1-methyl-3,4,5,7a-tetrahydro-2H-indol-6-yl] propanoate] | – | – | – | – | – | – | – | – | – | – | – | – | conversion to 001 in vivo [9]: converts to 001 in vivo; 001 quantifiable in plasma up to ([9]; male, C57BL/6, mouse, in vivo): 60 min; plasma levels of 001 ([9]; in vivo): not detectable
COc1ccc([C@@]23CCC(OC(=O)CC(C)C)=C[C@@H]2N(C)CC3)cc1OC [Compound 334, [(3aS,7aS)-3a-(3,4-dimethoxyphenyl)-1-methyl-3,4,5,7a-tetrahydro-2H-indol-6-yl] 3-methylbutanoate] | – | – | – | – | – | – | – | – | – | – | – | – | conversion to 001 in vivo [9]: converts to 001 in vivo; 001 quantifiable in brain up to ([9]; male, C57BL/6, mouse, in vivo): 2 h; 001 quantifiable in plasma up to ([9]; male, C57BL/6, mouse, in vivo): 60 min; plasma levels of 001 ([9]; in vivo): not detectable
